# In patent US12285393B2, “Roles of modulators of intersectin-Cdc42 signaling in Alzheimer's disease” (priority 2017, dated 2025):
# How the values were obtained:
# Rac1 = molecular target: T1, Rac1 (Homo sapiens, UniProt P63000); assay: Rho-GEF IC50 assay (GEF/DH domain-mediated mant-GTP binding); type: biochemical
# T1 construct: purchased Cytoskeleton Inc
# Method: (§1) Rho-GEF IC50 Assay: Rho-GEF assay (Cytoskeleton Inc., Denver, Colorado, United States of America) was conducted per manufacturer's instructions (λex=360 nm, λem=460 nm). Briefly, a solution (50 μL) of purified Rho GTPase (1 μM) and mant-GTP (1.5 μM) with or without compound (0.001-500 μM) was prepared and the absorbance monitored for 10-30 min to obtain the background/baseline. The addition of purified GEF/DH domain (0.08-0.2 μM) was carried out simultaneously and the absorbance was recorded for 30-45 min. The linear slope following the addition of the GEF was calculated and expressed as percentage of the control and plotted on an IC50 curve.
# RhoA = molecular target: T2, RhoA (Homo sapiens, UniProt P61586); assay: as above; type: biochemical
# T2 construct: purchased Cytoskeleton Inc
# T2 sequence (P61586 whole entry): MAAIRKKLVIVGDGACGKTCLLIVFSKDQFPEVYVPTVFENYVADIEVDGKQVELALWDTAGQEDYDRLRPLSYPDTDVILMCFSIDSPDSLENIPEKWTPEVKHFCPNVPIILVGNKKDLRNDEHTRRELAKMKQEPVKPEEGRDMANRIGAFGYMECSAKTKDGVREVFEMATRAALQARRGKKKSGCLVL
# Method: as §1
# Swiss 3T3 cells = assay: Immunofluorescence, cell morphology and bradykinin-mediated activation; type: cell-based
# Method: Immunofluorescence: Serum-starved Swiss 3T3 cells were pretreated with compound for 2 h before the addition of bradykinin (100 ng/mL) for 20 min. Cells were fixed in 4% paraformaldehyde for 15 min at RT and stored in PBS. Fixed cells were treated with 0.5% Triton for 30 min at RT, 100 mM Glycine 30 min at RT, and 10% BSA for 30 min at 37° C. Primary antibody for GM130 (1:1000, BD Biosciences, Franklin Lakes, New Jersey, United States of America) was used to probe for 1 h at RT followed by CY3-conjugated secondary antibody (1:1000) for 1 h at RT in the dark. Actin was stained with fluorescein-conjugated phalloidin (1:300). Hoechst (1:2500) was used to stain the nuclei. Coverslips were mounted onto slides using antifade medium from Life Technologies (Carlsbad, California, United States of America). Images were taken with a Zeiss Axiovert S100 microscope (Carl Zeiss; Thornwood, New York, United States of America).
# [1] = Solubility profile by optical density; type: physicochemical; conditions: for Ratio (optical density solution/solvent alone) / optical density of solution: RT, 10 minutes
# Text: ZCL278, ZCL279, and ZCL367 were all tested for solubility in the 5 FDA approved solvents to be used in humans. […] Results are shown below in Tables 2-4. Ratio refers to the optical density of the solution comprising the modulator compound/the optical density of the carder/solvent alone.
# C57BL/6 mice = assay: Toxicity experiment, I.P. injection; type: in vivo; conditions: 0.4 mg/g or 0.8 mg/g body weight I.P.; 1 hour or 2 weeks
# Method: ZCL 278 Toxicity Experiment: Individual C57BL/6 mice of 4-6 months of age from Jackson Laboratory (Bar Harbor, Maine, United States of America) were submitted to ZCL278 treatment for 5 minutes, 30 minutes, 2 hours and 24 hours. The dosage of ZCL278 for each mouse was 0.8 mg/g body weight delivered via intraperitoneal (I.P.) injection of a 15 mg/ml solution of ZCL278 was dissolved in the sesame oil (10% DMSO).
# ZCL 279 Toxicity Experiment: Individual C57BL/6 mice of 4-6 months of age from Jackson Laboratory (Bar Harbor, Maine, United States of America) were submitted to ZCL279 treatment for 5 minutes, 30 minutes, 2 hours and 24 hours. The dosage of ZCL279 for each mouse was 0.6 mg/g body weight delivered via intraperitoneal (I.P.) injection of a 15 mg/ml solution of ZCL279 was dissolved in the sesame oil (10% DMSO).
# ZCL367 Toxicity Experiment: Individual C57BL/6 mice of 4-6 months of age from Jackson Laboratory (Bar Harbor, Maine, United States of America) were submitted to ZCL367 treatment for 1 hour or 2 weeks. The dosage of ZCL367 for each time period was 0.4 mg/g body weight or 0.8 mg/g body weight, delivered via I.P. injection. […] Mice were sacrificed after end of 1 hour or 2 weeks.
# mice = assay: Long-term survival after one injection; type: in vivo
# Method: Long-term Survival. Groups of 10 mice were treated with one injection of ZCL278 (up to 0.8 mg/g), ZCL279 (up to 0.6 mg/g), or ZCL367 (up to 1.6 mg/g) to examine potential lethal dosage (the maximal dosage tested when no mice died). […] Durations longer than 3 months have not been tested. As a reference, working dosage for the behavioral assessment described below used 20 ug/g for injection, […] than the highest dosage of 0.8 mg/g tested in the long-term survival experiment.
# Cdc42 [2] = molecular target: T3, Cdc42 (Homo sapiens, UniProt P60953); assay: Rho-GEF IC50 assay (GEF/DH domain-mediated mant-GTP binding); type: biochemical; design: purchased Cytoskeleton Inc; conditions: read-out: IC50, GEF/DH domain-mediated mant-GTP binding/Cdc42 activation
# T3 sequence (P60953 whole entry, the tested form may be a part): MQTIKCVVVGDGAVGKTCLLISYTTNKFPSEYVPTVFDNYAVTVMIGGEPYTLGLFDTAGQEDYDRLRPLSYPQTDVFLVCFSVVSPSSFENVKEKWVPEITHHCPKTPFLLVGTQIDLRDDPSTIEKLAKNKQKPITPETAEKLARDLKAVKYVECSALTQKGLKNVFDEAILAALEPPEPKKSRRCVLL
# Method: as §1
# Cdc42 [3] = molecular target: T3, Cdc42; assay: mant-GTP binding to Cdc42 with or without GEF/DH domain; type: biochemical; design: purchased Cytoskeleton Inc; conditions: 5-500 μM
# Method: (§2) Cdc42 (1 μM) was incubated with mant-GTP (1.5 μM) and varying concentrations of ZCL278, ZCL279, or ZCL367 (5-500 μM). Fluorescent readings were taken every minute for 10 m to acquire the baseline. The GEF/DH domain (0.08-0.2 μM) was added followed by readings taken every minute for another 30 m. The linear phase was calculated from within the time period of 12-22 m. Cdc42 (1 μM) was incubated with mant-GTP (1.5 μM) and varying concentrations of ZCL278, ZCL279, or ZCL367 (5-500 μM). Fluorescent readings were taken every minute for 30 m to monitor the binding of mant-GTP in the absence of GEF/DH domain.
# Cdc42 [4] = molecular target: T3, Cdc42; assay: Cdc42-GEF-assay, additional compound screening; type: biochemical; design: purchased Cytoskeleton Inc; conditions: percentages of ZCL367 normalized to batch; less than 100% = more potent inhibitor
# Method: as §1, §2
# Cdc42-GEF-assays were conducted on additional screening compounds in batches of 9 compounds per batch as described above in Example 2 using ZCL278 and ZCL367 as standards. Screening compounds were taken from the Specs Chemistry Database of 197,000 compounds for small molecule or the National Cancer Institute Compound Library. […] These compounds promote Cdc42-mantGTP binding without GEF. It is possible that these compounds can inhibit Cdc42-mantGTP binding with GEF. […] These compounds appear to have activity like ZCL279. […] However, upon the addition of GEF, the compounds appear to facilitate the binding of mantGTP to Cdc42 (high assay slope, relative to ZCL278)
# [5] = Polyethylene Glycol300 (PEG-300), 30%
structure (smiles),measurement,setting,value
"O=C(N/N=C/c1ccccc1O)c1cc(O)cc(O)c1 [ZCL367, (E)-3,5-dihydroxy-N′-(2-hydroxybenzylidene)benzohydrazide]",IC50,Rac1,190 nM
same,IC50,RhoA,29700 nM
same,bradykinin-mediated activation,"Swiss 3T3 cells; Swiss 3T3 cells, bradykinin 100 ng/mL",inhibit bradykinin-mediated activation
same,changes to cell morphology,"Swiss 3T3 cells; after 4 h of treatment, more drastic after six hours",no effects on cell morphology
same,Ratio (optical density solution/solvent alone),"[1]; 1,2-Propanediol, 40%",2.667
same,optical density of solution,"[1]; 1,2-Propanediol, 40%",0.104
same,Ratio (optical density solution/solvent alone),[1]; Dimethyl Sulfoxide (DMSO),1.048
same,optical density of solution,[1]; Dimethyl Sulfoxide (DMSO),0.044
same,Ratio (optical density solution/solvent alone),"[1]; Pluronic F-68, 10%",2.026
same,optical density of solution,"[1]; Pluronic F-68, 10%",0.079
same,Ratio (optical density solution/solvent alone),[1]; [5],2.333
same,optical density of solution,[1]; [5],0.091
same,Ratio (optical density solution/solvent alone),[1]; Sesame Oil,2.636
same,optical density of solution,[1]; Sesame Oil,0.116
same,Ratio (optical density solution/solvent alone),[1]; Sterile Water,5.211
same,optical density of solution,[1]; Sterile Water,0.198
same,Ratio (optical density solution/solvent alone),"[1]; Tween-80, 0.4%",3.579
same,optical density of solution,"[1]; Tween-80, 0.4%",0.136
same,Ratio (optical density solution/solvent alone),[1]; dPBS,2.974
same,optical density of solution,[1]; dPBS,0.113
same,solubility,[1]; in DM19,completely soluble
same,"gross anatomic toxicity (liver, kidney, spleen)",C57BL/6 mice,no gross anatomic toxicity
same,Lethal Dosage,"mice; mouse, in vivo",0.8 mg/g
same,Longest Dosing Duration,"mice; mouse, in vivo",2 months
same,deaths in long-term survival,"mice; one injection, 1.6 mg/g, in 1 month",one (day 20) out of four mice died
same,IC50,Cdc42 [2],98 nM
same,effect on Cdc42 (mant-GTP binding),Cdc42 [3]; in the absence of GEF domain,has no effect
same,effect on Cdc42 (mant-GTP binding),Cdc42 [3]; in the presence of GEF domain,acts as an inhibitor
same,% ZCL367 (inhibitor activity),Cdc42 [4],100%
